The test system of one experiment is alpha₃ isoform of rat (Na⁺+K⁺)-ATPase. Description: Displacement of [3H]-ouabain, alpha3 isoform, rat brain preparation.
Details: not given
The format is binding. The text has this:
The activity of the compounds of formula II has been evaluated with the binding test on the alpha₁ and alpha₃ isoforms of rat (Na⁺+K⁺)-ATPase in rat kidney and rat brain, according to the method described by Noel F. et al., Biochemical Pharmacology, 40(12), pp 2611-2616, (1990) (see Example 2).
Evaluation of the interaction with the alpha₁ and alpha₃ isoforms of rat (Na⁺+K⁺)-ATPase
The method of Noel F. et al., Biochemical Pharmacology, 40(12), pp. 2611-2616, (1990) was used to evaluate the displacement of [³H]-ouabain in preparations of rat kidney and rat brain, containing various concentrations of nerifolin, 3beta-(alpha-L-tevetopyranosyloxy)-14-hydroxy-17beta-(4-pyridazil)-5beta,14beta-androstane (compound R), compound 5 and compound 6 and the corresponding genins, respectively, digitoxygenin, 3beta,14-dihydroxy-17beta-(4-pyridazil)-5beta,14beta-androstane (genin 1), 3beta,14-dihydroxy-17beta-(4-pyridazinyl-2-N-oxide)-5beta,14beta-androstane (genin 2) and 3beta,14-dihydroxy-17beta-(4-pyridazinyl-1-N-oxide)-5beta,14beta-androstane (genin 3).
A general note: Displacement assays read how much labelled ligand stays bound in the presence of the test substance.
`C[C@]12CC[C@H](O)C[C@H]1CC[C@@H]1[C@@H]2CC[C@]2(C)[C@@H](C3=CC(=O)OC3)CC[C@]12O` [Digitoxygenin, digitoxygenin]: the “K₁(alpha₁)/K₁(alpha₃)” value amounted to 37.

The experiment is the same for the next values; noted with them: selectivity index, alpha₁ (rat kidney) versus alpha₃ (rat brain).
With `CO[C@H]1[C@H](O)[C@H](O[C@H]2CC[C@@]3(C)[C@H](CC[C@@H]4[C@@H]3CC[C@]3(C)[C@@H](c5ccn[n+]([O-])c5)CC[C@]43O)C2)O[C@@H](C)[C@@H]1O` [Compound 5, 3beta-(alfa-L-tevetopyranosyloxy)-14-hydroxy-17beta-(4-pyridazinyl-2-N-oxide)-5beta,14beta-androstane], the “K₁(alpha₁)/K₁(alpha₃)” value was “≧1258”.
With `CO[C@H]1[C@H](O)[C@H](O[C@H]2CC[C@@]3(C)[C@H](CC[C@@H]4[C@@H]3CC[C@]3(C)[C@@H](c5cc[n+]([O-])nc5)CC[C@]43O)C2)O[C@@H](C)[C@@H]1O` [Compound 6, 3beta-(alfa-L-tevetopyranosyloxy)-14-hydroxy-17beta-(4-pyridazinyl-1-N-oxide)-5beta,14beta-androstane], the “K₁(alpha₁)/K₁(alpha₃)” value is given as “≧1000”.
In the case of `CO[C@H]1[C@H](O)[C@H](O[C@H]2CC[C@@]3(C)[C@H](CC[C@@H]4[C@@H]3CC[C@]3(C)[C@@H](c5ccnnc5)CC[C@]43O)C2)O[C@@H](C)[C@@H]1O` [Compound R, 3beta-(alpha-L-tevetopyranosyloxy)-14-hydroxy-17beta-(4-pyridazil)-5beta,14beta-androstane], the “K₁(alpha₁)/K₁(alpha₃)” value is 63.
For the compound `C[C@]12CC[C@H](O)C[C@H]1CC[C@@H]1[C@@H]2CC[C@]2(C)[C@@H](c3ccnnc3)CC[C@]12O` [Genin 1, 3beta,14-dihydroxy-17beta-(4-pyridazil)-5beta,14beta-androstane], the “K₁(alpha₁)/K₁(alpha₃)” value is 96.
Still for that read-out and setting: as for `CO[C@H]1[C@H](O)[C@H](O[C@H]2CC[C@@]3(C)[C@H](CC[C@@H]4[C@@H]3CC[C@]3(C)[C@@H](C5=CC(=O)OC5)CC[C@]43O)C2)O[C@@H](C)[C@@H]1O` [Nerifolin, nerifolin], the figure is 90.

These data come from patent publication EP0551953A2, “17-(Pyridazine-N-oxide)-substituted steroidal compounds active on the cardiovascular system” (ZAMBON GROUP S.p.A., priority 1992, dated 1993).
